# Where two headings read alike, the source gives them in different places.
# Assays:
# [1] = Pharmacokinetics of oxazolidinones after single oral dose, plasma LC/MS; assay type: in vivo, BALB/c mice
# Experimental: Pharmacokinetics of oxazolidinones. Uninfected female BALB/c mice weighing approximately 20 g received single doses of SZD (50 mg/kg), LZD (100 mg/kg), TZD (10 or 20 mg/kg) or AZD (50 or 200 mg/kg). Three mice per dose per time point were sampled by cardiac puncture at 0.5, 1, 2, 4, 8 and 24 hours post-dose (plus an additional 16 hour time point for AZD). Plasma drug concentrations were quantified by a validated LC/MS method performed at AstraZeneca (for AZD only) (14) or Rutgers New Jersey Medical School (for other oxazolidinones). Standards for the different oxazolidinones were provided by the sponsors. At Rutgers, analytes of interest were extracted by combining 20 μl of mouse plasma with 20 μl of acetonitrole:water (1:1), and 180 μl of methanol:acetonitrile (1:1) containing 10 mg/ml of verapamil (Sigma-Aldrich) as internal standard. The mixture was vortexed and centrifuged, and 100 μL of the supernatant was recovered and combined with 10 μL of water for analysis. LC/MS-MS analysis was performed with an Agilent 1260 LC-system coupled to an AB Sciex 4000 Q-trap Mass Spectrometer (positive mode, electrospray ionization), and an Agilent column SB-C8, 2.1×30 mm, 3.5 μm, with the column temperature fixed at 24° C. Mobile phase A was 0.1% formic acid in 100% H2O and mobile phase B was 0.1% formic acid in 100% acetonitrile. Injection volumes were routinely 2 μl. The Mass Selective Detector was set to MRM (multiple reaction monitoring) mode using positive polarity ionization, monitoring for the ions of interest SZD (m/z 354.12/312.04), SZD-M1(370.13/238.12), LZD(338.00/235.00), and TZD(371.12/343.00) and the internal standard (m/z 455.4/165.2). The lower limit of quantification for all oxazolidinones was […]. PK parameters were determined by non-compartmental analysis using WinNonlin 6.4 (Certara, Princeton, NJ).
# [2] = tested on: Mycobacterium tuberculosis H37Rv; assay type: in vivo
# cytochrome P450 = settings: cited from earlier work
# [3] = tested on: Gram-positive and Gram-negative bacteria; settings: cited from earlier work
# [4] = female, BALB/c, mouse, in vivo, single oral dose 50 mg/kg, mean, plasma, read-out: AUC0-24 hr
# [5] = female, BALB/c, mouse, in vivo, single oral dose 50 mg/kg, mean, plasma, read-out: Cmax
# [6] = female, BALB/c, mouse, in vivo, single oral dose 50 mg/kg, mean, plasma, read-out: Tmax
# [7] = female, BALB/c, mouse, in vivo, single oral dose 50 mg/kg, mean, plasma, read-out: t1/2 (converted)
# [8] = Example 1, lung, 1 month of treatment, D0 count 6.17±0.27, PMD 50 mg/kg, LZD 100 mg/kg, SZD 50 mg/kg
# [9] = M1 metabolite after single oral dose of sutezolid 50 mg/kg, mean, plasma
# [10] = female, BALB/c, mouse, in vivo, po, 100 mg/kg
# [11] = female, BALB/c, mouse, in vivo, po, 10 mg/kg
# [12] = female, BALB/c, mouse, in vivo, po, 20 mg/kg
structure (smiles),measurement,setting,value
O=C([C@@H](O)CO)N1CC=C(c2c(F)cc(N3C[C@H](COc4ccon4)OC3=O)cc2F)CC1 [AZD],predicted AUC0-24 h,"[1]; 125 mg/kg dose, interpolated between the 50 and 200 mg/kg doses",160000 to 190000 ng·h/mL
same,AUC(0-t),[1]; [4],74800 ng·h/mL
same,Cmax,[1]; [5],20400 ng/mL
same,Tmax,[1]; [6],42 min
same,half-life,[1]; [7],144 min
same,AUC(0-t),"[1]; female, BALB/c, mouse, in vivo, single oral dose 200 mg/kg, mean, plasma, read-out: AUC0-24 hr",220000 ng·h/mL
same,Cmax,"[1]; female, BALB/c, mouse, in vivo, single oral dose 200 mg/kg, mean, plasma, read-out: Cmax",31400 ng/mL
same,Tmax,"[1]; female, BALB/c, mouse, in vivo, single oral dose 200 mg/kg, mean, plasma, read-out: Tmax",42 min
same,half-life,"[1]; female, BALB/c, mouse, in vivo, single oral dose 200 mg/kg, mean, plasma, read-out: t1/2 (converted)",516 min
"O=[N+]([O-])c1cn2c(n1)OCC(OCc1ccc(OC(F)(F)F)cc1)C2 (stereo in doubt) [PMD, (6S)-2-nitro-6-{[4-(trifluoromethoxy)benzyl]oxy}-6,7-dihydro-5H-imidazo[2,1-b][1,3]oxazine]",Mean (±SD) log10 CFU count at M1,[2]; [8],4.57 ± 0.22 log10 CFU
same,cytochrome P450 interactions,cytochrome P450,no significant cytochrome P450 interactions
same,activity against a broad range of Gram-positive and Gram-negative bacteria,[3],no significant activity
CC(=O)NC[C@H]1CN(c2ccc(N3CC[S+]([O-])CC3)c(F)c2)C(=O)O1 [Sutezolid M1],AUC0-24 hr,[1]; [9],31945 ng·h/mL
same,Cmax,[1]; [9],15233 ng/mL
same,Tmax,[1]; [9],30 min
same,Cmax relative to SZD parent,[1]; after oral SZD 50 mg/kg,approximately 10 times
same,mean AUC0-24 h relative to SZD parent,[1]; after oral SZD 50 mg/kg,approximately 10 times
"COc1nc2ccc(Br)cc2cc1[C@@H](c1ccccc1)[C@@](O)(CCN(C)C)c1cccc2ccccc12 [BDQ, (1R, 2S)-1-(6-bromo-2methoxy-3-quinolinyl)-4-(dimethylamino)-2-(1-naphthalenyl)-1-phenyl-2-butanol compound with fumaric acid (1:1)]",Mean (±SD) log10 CFU count at M1,[2]; [8],3.24 ± 0.25 log10 CFU
"CC(=O)NC[C@H]1CN(c2ccc(N3CCOCC3)c(F)c2)C(=O)O1 [LZD, (S)—N-[[3-[3-Fluoro-4-(4morpholinyl)phenyl]-2-oxo-5-oxazolidinyl]methyl]-acetamide]",Mean (±SD) log10 CFU count at M1,[2]; in vivo,4.97 ± 0.26 log10 CFU
same,Cmax,[1]; [10],81900 ng/mL
same,Tmax,[1]; [10],30 min
same,AUC(0-t),"[1]; female, BALB/c, mouse, in vivo, po, 100 mg/kg, AUC0-24 h",244000 ng·h/mL
same,AUC(0-t),"[1]; female, BALB/c, mouse, in vivo, po, 100 mg/kg, AUC0-24 hr",244000 ng·h/mL
same,half-life,"[1]; female, BALB/c, mouse, single oral dose 100 mg/kg, mean, plasma, read-out: t1/2 (converted)",180 min
"CC(=O)NC[C@H]1CN(c2ccc(N3CCSCC3)c(F)c2)C(=O)O1 [SZD, sutezolid]",Mean (±SD) log10 CFU count at M1,[2]; [8],3.85 ± 0.37 log10 CFU
same,AUC(0-t),[1]; [4],3360 ng·h/mL
same,Cmax,[1]; [5],1290 ng/mL
same,Tmax,[1]; [6],30 min
same,half-life,[1]; [7],168 min
"Cn1nnc(-c2ccc(-c3ccc(N4C[C@H](CO)OC4=O)cc3F)cn2)n1 [TZD, tedizolid]",AUC(0-t),"[1]; female, BALB/c, mouse, in vivo, 10 mg/kg, total drug AUC0-24 h",40000 ng·h/mL
same,Cmax,[1]; [11],6420 ng/mL
same,Tmax,[1]; [11],42 min
same,half-life,[1]; [11],180 min
same,AUC(0-t),"[1]; female, BALB/c, mouse, in vivo, po, 10 mg/kg, AUC0-24 hr",40400 ng·h/mL
same,Cmax,[1]; [12],11400 ng/mL
same,Tmax,[1]; [12],30 min
same,half-life,[1]; [12],234 min
same,AUC(0-t),"[1]; female, BALB/c, mouse, in vivo, po, 20 mg/kg, AUC0-24 hr",77700 ng·h/mL

# — US20230414625A1, “Combination Antibacterial Composition and Short-Course Antibacterial Regimen” (The Global Alliance for TB Drug Development, Inc., priority 2015, published 2023)
